Where two headings read alike, the source gives them in different places.
Columns and labels:
[1] = In vitro skin penetration and metabolism, fresh viable pig skin on static Franz cells; conditions: 24 h; epidermis + dermis + receptor fluid
Excerpt: Fresh viable pig skin (without hot steam treatment, by-product from meat industry) was obtained from a local, commercial butcher (Hammoor, Germany). The back skin was from female pigs (bred from “Dänische Landrasse” (female) and Pietrain (male) pigs, ~130 days old, 100 kg body weight). Pig skin samples were gently dry-shaved and washed with water before use. For the experiment, 2 replicate discs from each of 3 donors were used.
Skin of full-thickness was mounted on static Franz cells with a 4.9 cm² application area. The receptor compartment of the diffusion cell was filled with approx. 5 ml RF (1% BSA, 0.9% NaCl, 0.05% gentamycin sulfate in water), above a magnetic stirrer set to low rotation. […] The experiment was conducted using non-occluded conditions.
The dermal absorption was calculated as the total amount present within epidermis (without the amount in the total SC strips), dermis and RF.

[2] = Deterministic PBPK model of plasma concentrations; design: species or system human; conditions: deterministic PBPK and Fup
[3] = tested on: HepG2 reporter cell lines; experiment: ToxProfiler cell stress assay; assay type: cell-based, human
[4] = tested on: panel of 83 pharmacological targets
Excerpt: The set of targets was extended to broaden the biological coverage.
Results showing an inhibition or stimulation higher than 50% are considered to represent significant effects (i.e. a “hit”).

acetylcholinesterase (h) = acetylcholinesterase (h) (Homo sapiens, UniProt P22303); experiment: Pharmacology profiling: acetylcholinesterase; assay type: biochemical
COX2(h) = molecular target: T1, COX2(h) (Homo sapiens, UniProt P35354); experiment: Pharmacology profiling: COX2; assay type: biochemical
T1 sequence (P35354 18-604): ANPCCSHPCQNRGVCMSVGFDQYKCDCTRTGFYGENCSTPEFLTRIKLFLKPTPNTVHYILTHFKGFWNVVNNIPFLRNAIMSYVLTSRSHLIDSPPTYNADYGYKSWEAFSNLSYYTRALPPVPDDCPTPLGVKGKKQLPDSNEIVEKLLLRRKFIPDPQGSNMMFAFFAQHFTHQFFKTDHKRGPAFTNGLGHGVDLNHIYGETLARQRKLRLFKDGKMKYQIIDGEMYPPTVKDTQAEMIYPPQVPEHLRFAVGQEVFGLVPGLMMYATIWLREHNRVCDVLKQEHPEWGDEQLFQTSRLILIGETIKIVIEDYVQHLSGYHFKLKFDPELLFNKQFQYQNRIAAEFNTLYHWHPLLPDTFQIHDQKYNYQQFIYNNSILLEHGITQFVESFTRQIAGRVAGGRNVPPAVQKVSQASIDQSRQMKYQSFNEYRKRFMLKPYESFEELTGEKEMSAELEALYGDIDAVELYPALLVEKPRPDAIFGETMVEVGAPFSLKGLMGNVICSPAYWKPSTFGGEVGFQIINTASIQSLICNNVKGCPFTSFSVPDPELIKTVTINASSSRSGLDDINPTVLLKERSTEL

[5] = Description: Figure 8 provides an overview of the tiered workflow and the related in silico and in vitro NAMs used to calculate the MoIE. […] Since this assessment is conducted using plasma concentrations rather than external doses, the comparison is an MoIE.
In this assessment, the total plasma concentrations were used, rather than unbound concentrations, because they are compared with nominal doses used in the in vitro assays (biokinetics in the toxicogenomics incubations were not measured).

Human MDR1 = Human MDR1 (Homo sapiens, UniProt P08183); conditions: not told
Human MRP2 = Human MRP2 (Homo sapiens, UniProt Q92887); conditions: not told
Human OAT2v1 = Human OAT2v1 (Homo sapiens, UniProt Q9Y694)
Human OAT3 = Human OAT3 (Homo sapiens, UniProt Q8TCC7)
Remark: listed apart in the source
HepG2 cells [6] = conditions: human, 24 h
[7] = tested on: hiPSCs differentiated into cardiomyocytes, hepatocytes, or neural rosettes; conditions: human
estrogen receptor (ER) = conditions: ref ToxCast, cited from earlier work
[8] = tested on: Thyroid (TR and TPO only); design: method as in ToxCast; conditions: ref ToxCast, cited from earlier work
estrogen receptor [9] = tested on: estrogen receptor; design: method as in ToxCast database; conditions: ref ToxCast database; cited from earlier work
estrogen receptor [10] = tested on: estrogen receptor; design: method as in ToxCast database; conditions: ref ToxCast database; cited from earlier work; remark: listed apart in the source
estrogen receptor [11] = tested on: estrogen receptor; design: method as in ToxCast database; conditions: ref ToxCast database; cited from earlier work; remark: listed apart in the source
androgen receptor [12] = tested on: androgen receptor; design: method as in ToxCast database; conditions: ref ToxCast database; cited from earlier work
androgen receptor [13] = tested on: androgen receptor; design: method as in ToxCast database; conditions: ref ToxCast database; cited from earlier work; remark: listed apart in the source
androgen receptor [14] = tested on: androgen receptor; design: method as in ToxCast database; conditions: ref ToxCast database; cited from earlier work; remark: listed apart in the source
thyroid pathway [15] = tested on: thyroid pathway; design: method as in ToxCast database; conditions: ref ToxCast database; cited from earlier work
TSHR = tested on: TSHR; design: method as in ToxCast database; conditions: ref ToxCast database; cited from earlier work
thyroid pathway [16] = tested on: thyroid pathway; design: method as in ToxCast database; conditions: ref ToxCast database; cited from earlier work; remark: listed apart in the source
in vitro = conditions: human, plasma
HepG2 cells [17] = experiment: Whole-genome transcriptomics dose response (toxicogenomics); conditions: analysis method 1; HepG2, 24 h

acetylcholinesterase (h), sequence (P22303 32-614): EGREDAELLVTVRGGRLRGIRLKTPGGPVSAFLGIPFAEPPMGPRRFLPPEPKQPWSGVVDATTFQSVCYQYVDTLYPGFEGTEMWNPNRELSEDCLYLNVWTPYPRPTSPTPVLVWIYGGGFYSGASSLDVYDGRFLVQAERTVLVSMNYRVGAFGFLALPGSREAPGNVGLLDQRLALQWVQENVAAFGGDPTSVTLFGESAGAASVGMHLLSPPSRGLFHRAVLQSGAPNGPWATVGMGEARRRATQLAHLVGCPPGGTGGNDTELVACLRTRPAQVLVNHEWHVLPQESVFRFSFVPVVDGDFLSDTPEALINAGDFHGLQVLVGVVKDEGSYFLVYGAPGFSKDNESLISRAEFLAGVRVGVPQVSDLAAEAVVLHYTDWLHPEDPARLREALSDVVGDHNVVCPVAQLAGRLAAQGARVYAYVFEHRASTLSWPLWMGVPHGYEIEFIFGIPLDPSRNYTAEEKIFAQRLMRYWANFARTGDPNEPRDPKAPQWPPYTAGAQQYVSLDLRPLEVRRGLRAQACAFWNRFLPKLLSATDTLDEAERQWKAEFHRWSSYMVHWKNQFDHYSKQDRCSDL
Human OAT3, sequence (Q8TCC7 whole entry): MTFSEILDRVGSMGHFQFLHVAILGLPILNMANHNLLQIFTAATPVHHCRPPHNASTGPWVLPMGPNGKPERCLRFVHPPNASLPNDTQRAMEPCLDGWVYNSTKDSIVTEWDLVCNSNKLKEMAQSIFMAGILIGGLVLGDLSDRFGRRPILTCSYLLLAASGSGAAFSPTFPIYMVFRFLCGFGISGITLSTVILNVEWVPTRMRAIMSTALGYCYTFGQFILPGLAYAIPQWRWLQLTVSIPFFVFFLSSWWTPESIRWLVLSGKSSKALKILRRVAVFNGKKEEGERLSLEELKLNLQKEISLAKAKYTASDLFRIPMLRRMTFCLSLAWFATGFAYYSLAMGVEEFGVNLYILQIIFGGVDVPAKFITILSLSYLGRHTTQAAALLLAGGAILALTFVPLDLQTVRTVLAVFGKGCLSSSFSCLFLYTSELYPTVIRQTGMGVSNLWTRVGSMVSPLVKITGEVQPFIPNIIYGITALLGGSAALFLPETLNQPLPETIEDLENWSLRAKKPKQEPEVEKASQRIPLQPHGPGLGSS
Human OAT2v1, sequence (Q9Y694 1-546 isoform Q9Y694-2): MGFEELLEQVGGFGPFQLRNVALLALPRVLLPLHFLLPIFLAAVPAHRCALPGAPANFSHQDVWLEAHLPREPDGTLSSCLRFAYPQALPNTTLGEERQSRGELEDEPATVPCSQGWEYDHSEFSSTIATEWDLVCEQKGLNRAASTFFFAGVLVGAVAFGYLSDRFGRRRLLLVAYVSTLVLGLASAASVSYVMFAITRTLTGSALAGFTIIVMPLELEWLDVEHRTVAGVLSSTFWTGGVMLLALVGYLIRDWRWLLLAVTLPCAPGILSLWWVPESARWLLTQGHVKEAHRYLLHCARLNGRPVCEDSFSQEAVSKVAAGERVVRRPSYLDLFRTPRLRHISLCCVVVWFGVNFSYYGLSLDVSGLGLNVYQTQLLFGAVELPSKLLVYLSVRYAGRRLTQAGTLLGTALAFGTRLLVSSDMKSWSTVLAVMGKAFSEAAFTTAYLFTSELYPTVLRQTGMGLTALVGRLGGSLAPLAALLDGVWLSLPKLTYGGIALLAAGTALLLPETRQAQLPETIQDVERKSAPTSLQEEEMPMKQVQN
Human MRP2, sequence (Q92887 whole entry): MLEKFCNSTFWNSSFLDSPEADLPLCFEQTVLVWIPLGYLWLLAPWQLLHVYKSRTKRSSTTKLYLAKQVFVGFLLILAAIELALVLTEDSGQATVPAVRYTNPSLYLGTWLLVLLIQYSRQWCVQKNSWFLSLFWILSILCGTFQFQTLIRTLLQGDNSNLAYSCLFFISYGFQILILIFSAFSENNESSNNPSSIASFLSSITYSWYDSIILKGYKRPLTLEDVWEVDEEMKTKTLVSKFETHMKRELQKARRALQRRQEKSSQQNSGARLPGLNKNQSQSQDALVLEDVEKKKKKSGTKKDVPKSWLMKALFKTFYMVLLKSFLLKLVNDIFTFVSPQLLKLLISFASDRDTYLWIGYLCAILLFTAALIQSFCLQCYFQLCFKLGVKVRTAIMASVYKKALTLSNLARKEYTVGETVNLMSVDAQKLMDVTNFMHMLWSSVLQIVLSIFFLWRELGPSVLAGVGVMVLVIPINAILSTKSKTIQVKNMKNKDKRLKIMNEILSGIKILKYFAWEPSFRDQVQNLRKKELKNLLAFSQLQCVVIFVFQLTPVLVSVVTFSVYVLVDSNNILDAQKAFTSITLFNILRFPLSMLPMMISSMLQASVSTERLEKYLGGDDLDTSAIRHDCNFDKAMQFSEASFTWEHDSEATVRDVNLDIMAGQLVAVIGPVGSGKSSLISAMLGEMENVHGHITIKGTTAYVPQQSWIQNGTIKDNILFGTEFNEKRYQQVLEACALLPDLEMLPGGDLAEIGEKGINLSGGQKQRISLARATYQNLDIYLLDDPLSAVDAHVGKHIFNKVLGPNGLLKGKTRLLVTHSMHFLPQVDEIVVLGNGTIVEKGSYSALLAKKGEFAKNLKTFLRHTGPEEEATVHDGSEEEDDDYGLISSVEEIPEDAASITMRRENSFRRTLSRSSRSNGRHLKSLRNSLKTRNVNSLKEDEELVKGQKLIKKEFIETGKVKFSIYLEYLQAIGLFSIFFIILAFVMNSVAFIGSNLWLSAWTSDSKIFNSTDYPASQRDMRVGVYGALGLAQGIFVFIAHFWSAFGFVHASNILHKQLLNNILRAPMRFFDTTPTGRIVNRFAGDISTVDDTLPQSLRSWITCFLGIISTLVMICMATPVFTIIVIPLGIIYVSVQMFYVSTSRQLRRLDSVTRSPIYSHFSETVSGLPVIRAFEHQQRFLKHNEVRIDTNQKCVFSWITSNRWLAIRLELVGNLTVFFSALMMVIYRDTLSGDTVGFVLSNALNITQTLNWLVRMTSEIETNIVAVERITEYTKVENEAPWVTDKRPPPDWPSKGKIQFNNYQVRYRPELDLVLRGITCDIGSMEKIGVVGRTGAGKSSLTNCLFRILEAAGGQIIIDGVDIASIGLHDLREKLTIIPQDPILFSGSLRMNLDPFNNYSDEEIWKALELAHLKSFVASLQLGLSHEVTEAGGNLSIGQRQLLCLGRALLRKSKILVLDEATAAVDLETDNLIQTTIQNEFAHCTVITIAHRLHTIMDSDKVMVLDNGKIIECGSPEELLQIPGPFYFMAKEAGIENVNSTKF
Human MDR1, sequence (P08183 whole entry): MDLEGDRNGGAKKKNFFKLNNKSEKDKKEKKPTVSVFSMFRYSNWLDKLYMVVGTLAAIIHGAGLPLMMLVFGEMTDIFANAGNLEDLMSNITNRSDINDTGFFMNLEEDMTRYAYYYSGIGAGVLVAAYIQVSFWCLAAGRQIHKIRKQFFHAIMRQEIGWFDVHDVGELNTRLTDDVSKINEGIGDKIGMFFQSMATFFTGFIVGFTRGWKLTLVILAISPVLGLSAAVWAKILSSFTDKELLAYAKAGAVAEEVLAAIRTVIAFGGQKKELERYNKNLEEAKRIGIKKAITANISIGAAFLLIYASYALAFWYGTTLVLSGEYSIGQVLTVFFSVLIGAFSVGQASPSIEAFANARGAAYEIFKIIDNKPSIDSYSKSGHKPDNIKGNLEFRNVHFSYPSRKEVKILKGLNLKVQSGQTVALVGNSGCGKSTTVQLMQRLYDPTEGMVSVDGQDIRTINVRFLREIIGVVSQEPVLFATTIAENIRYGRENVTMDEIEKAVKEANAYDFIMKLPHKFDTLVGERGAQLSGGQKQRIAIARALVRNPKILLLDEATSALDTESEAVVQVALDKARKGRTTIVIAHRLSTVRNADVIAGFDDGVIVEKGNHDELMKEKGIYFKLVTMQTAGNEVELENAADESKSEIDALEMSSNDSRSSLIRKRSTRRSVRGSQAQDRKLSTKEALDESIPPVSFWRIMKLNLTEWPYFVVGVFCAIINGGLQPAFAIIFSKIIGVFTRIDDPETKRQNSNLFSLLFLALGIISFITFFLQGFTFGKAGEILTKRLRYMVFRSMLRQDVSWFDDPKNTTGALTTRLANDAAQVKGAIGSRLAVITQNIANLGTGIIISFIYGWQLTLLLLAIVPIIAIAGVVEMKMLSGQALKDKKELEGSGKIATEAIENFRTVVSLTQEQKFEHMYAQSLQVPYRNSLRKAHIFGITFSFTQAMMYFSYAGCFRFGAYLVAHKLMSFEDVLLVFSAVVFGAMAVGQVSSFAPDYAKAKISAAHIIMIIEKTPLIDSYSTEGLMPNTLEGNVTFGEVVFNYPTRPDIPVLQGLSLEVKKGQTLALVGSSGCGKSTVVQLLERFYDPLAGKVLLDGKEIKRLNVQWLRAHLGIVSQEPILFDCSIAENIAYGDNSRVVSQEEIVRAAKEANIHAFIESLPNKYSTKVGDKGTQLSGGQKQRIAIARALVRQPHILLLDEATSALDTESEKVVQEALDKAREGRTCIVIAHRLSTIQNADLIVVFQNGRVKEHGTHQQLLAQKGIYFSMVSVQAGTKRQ

## O=C(O)c1ccccc1O [SA, salicylic acid]
[1]
  Dermal absorption of individual analytes: 6.9 ± 0.4 percentage of the applied dose
[2]
  Exposure of unbound SA compared to unbound BSal: ≥ 5 fold
[3]; ICAM1 (indicating inflammation), tested 10 μM to 10 mM
  PoD: 4,000 µM
[3]; seven reporters
  Stress pathway reporters activated: activated only ICAM1
[4]
  PoD: ≥10,000 µM
[4]; up to millimolar concentrations
  Effect on panel targets: none of the targets tested were significantly impacted
Acetylcholinesterase (h); 10 µM SA, two technical replicates
  inhibition at 10 µM: 25.4%
Acetylcholinesterase (h); 10 μM to 1 mM SA
  Inhibition of acetylcholinesterase, follow-up: ≤ 5%
COX2(h)
  IC50: > 10 mM
COX2(h); 10 µM
  Inhibition of COX2, screening: did not inhibit
COX2(h); 10 mM
  inhibition at 10000 µM: 29%
[5]; PoD method 1 (213 µM) / CI95 Cmax 0.630 µM
  MoIE: 338
[5]; PoD method 1 (213 µM) / mean Cmax 0.273 µM
  MoIE: 780
[5]; PoD method 2 ([…]) / CI95 Cmax 0.630 µM
  MoIE: 16
[5]; PoD method 2 ([…]) / mean Cmax 0.273 µM
  MoIE: 38
Human MDR1
  Substrate of MDR1 (efflux): not a substrate
Human MRP2
  Substrate of MRP2 (efflux): not a substrate
Human OAT2v1
  Substrate of OAT2v1 (uptake): not a substrate
Human OAT3
  Substrate of OAT3 (uptake): borderline substrate
other
  Fraction unbound in the plasma (Fup): 3 to ∼20
HepG2 cells [6]
  PoD (BMDL, lowest pathway): 213 μM (method 1) µM
[7]
  PoD: 500 µM
Estrogen receptor (ER); Tier 0
  Estrogen: Experimental Data (call): Negative
Estrogen receptor (ER)
  Estrogen: assays active / assays: 0/18 active
[8]; Tier 0
  Thyroid (TR and TPO only): Experimental Data (call): Negative
[8]
  Thyroid (TR and TPO only): assays active / assays: 0/11 active
Estrogen receptor [9]
  Estrogen pathway Dimerisation: Call: Negative
Estrogen receptor [10]
  Estrogen pathway Reporter protein Agonist: Call: Negative
Estrogen receptor [11]
  Estrogen pathway Reporter protein Antagonist: Call: Negative
Androgen receptor [12]
  Androgen pathway mRNA induction: Call: Negative
Androgen receptor [13]
  Androgen pathway Reporter protein Agonist: Call: Negative
Androgen receptor [14]
  Androgen pathway Reporter protein Antagonist: Call: Negative
Thyroid pathway [15]
  Thyroid pathway mRNA induction: Call: Negative
TSHR
  Thyroid pathway Regulation of transcription factor activity (TSHR): Call: Negative
Thyroid pathway [16]
  Thyroid pathway Reporter protein Antagonist: Call: Negative
In vitro
  fraction unbound: 0.029 to 0.18
HepG2 cells [17]
  PoD (BMDL, lowest pathway): 213 µM

Source: paper PMC10955127 (Frontiers in Pharmacology, 2024)
